Molecules are shown by their SMILES. Where two headings read alike, the source gives them in different places.

In data set [1] the test system is Key Broadleaf Weed and Crop Species. The data set can be described thus: Post-emergent Test II herbicidal activity (Table 5). The class given is in vivo. Conditions: post-emergence, 336 h, post-emergent, 14 days after application; for pest or weed control at 140 g/ha: 140 g ai/ha; for pest or weed control at 70 g/ha: 70 g ai/ha. In short, it runs like this:
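Post-emergence foliar spray, 187 L/ha, track sprayer at 43 cm above canopy. Carrier: acetone/water/IPA/DMSO/Atplus 411F/Triton X-155. Plants at 1st–2nd true leaf; subirrigated afterwards; % injury scored visually at 14 d.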

Data set [2] has as its system Key Grass and Sedge Weeds as well as Grass Crops. The data set can be described thus: Post-emergent Test II herbicidal activity (Table 6). The class given is in vivo. Conditions: post-emergence, 336 h; for pest or weed control at 140 g/ha: application rate 140 g ai/ha; for pest or weed control at 70 g/ha: application rate 70 g ai/ha. As to the method:
Post-emergent Test II: Seeds or nutlets of the desired test plant species were planted in Sun Gro Metro-Mix® 360 planting mixture, which typically has a pH of 6.0 to 6.8 and an organic matter content of about 30 percent, in plastic pots with a surface area of 64 square centimeters. When required to ensure good germination and healthy plants, a fungicide treatment and/or other chemical or physical treatment was applied. The plants were grown for 7-21 d in a greenhouse with an approximate 15 h photoperiod which was maintained at about 23-29° C. during the day and 22-28° C. during the night. Nutrients and water were added on a regular basis and supplemental lighting was provided with overhead metal halide 1000-Watt lamps as necessary. The plants were employed for testing when they reached the first or second true leaf stage.
A weighed amount, determined by the highest rate to be tested, of each test compound was placed in a 25 mL glass vial and was dissolved in 4 mL of a 97:3 v/v mixture of acetone and DMSO to obtain concentrated stock solutions. […] The concentrated stock solutions obtained were diluted with 20 mL of an aqueous mixture containing acetone, water, isopropyl alcohol, DMSO. Atplus 411F crop oil concentrate, and Triton® X-155 surfactant in a 48.5:39:10:1.5:1.0:0.02 v/v ratio to obtain spray solutions containing the highest application rates. Additional application rates were obtained by serial dilution of 12 mL of the high rate solution into a solution containing 2 mL of 97:3 v/v mixture of acetone and DMSO and 10 mL of an aqueous mixture containing acetone, water, isopropyl alcohol, DMSO, Atplus 411F crop oil concentrate, and Triton X-155 surfactant in a 48.5:39:10:1.5:1.0:0.02 v/v ratio to obtain ½×, ¼×, ⅛× and 1/16× rates of the high rate. Compound requirements are based upon a 12 mL application volume at a rate of 187 liters per hectare (L/ha). Formulated compounds were applied to the plant material with an overhead Mandel track sprayer equipped with 8002E nozzles calibrated to deliver 187 L/ha over an application area of 0.503 square meters at a spray height of 18 inches (43 cm) above the average plant canopy height. Control plants were sprayed in the same manner with the solvent blank.
The treated plants and control plants were placed in a greenhouse as described above and watered by subirrigation to prevent wash-off of the test compounds. After 14 d, the condition of the test plants as compared with that of the untreated plants was determined visually and scored on a scale of 0 to 100 percent where 0 corresponds to no injury and 100 corresponds to complete kill.

Setting [3] is: ABUTH: velvetleaf (Abutilon theophrasti), read-out: Visual Growth Reduction (%) 14 Days After Application ABUTH.
[4] abbreviates: AMARE: redroot pigweed (Amaranthus retroflexus), read-out: Visual Growth Reduction (%) 14 Days After Application AMARE.
Where [5] appears, read: BRSNN: oilseed-rape, canola (Brassica napus), read-out: Visual Growth Reduction (%) 14 Days After Application BRSNN.
Setting [6] is: CHEAL: lambsquarters (Chenopodium album), read-out: Visual Growth Reduction (%) 14 Days After Application CHEAL.
The mark [7] stands for this setting: EPHHL: wild poinsettia (Euphorbia heterophylla), read-out: Visual Growth Reduction (%) 14 Days After Application EPHHL.
The mark [8] stands for this setting: HELAN: sunflower (Helianthus annuus), read-out: Visual Growth Reduction (%) 14 Days After Application HELAN.
[9] abbreviates: VIOTR: wild pansy (Viola tricolor), read-out: Visual Growth Reduction (%) 14 Days After Application VIOTR.
Setting [10] is: Triticum aestivum, TRZSS (wheat), read-out: Visual Growth Reduction (%) 14 Days After Application, TRZSS.
Setting [11] is: CYPES: yellow nutsedge (Cyperus esculentus), read-out: Visual Growth Reduction (%) 14 Days After Application, CYPES.
[12] abbreviates: DIGSA: crabgrass (Digitaria sanguinalis), read-out: Visual Growth Reduction (%) 14 Days After Application, DIGSA.
Setting [13] is: ECHCG: barnyardgrass (Echinochloa crus-galli), read-out: Visual Growth Reduction (%) 14 Days After Application, ECHCG.
Setting [14] is: ORYSA: rice (Oryza sativa), read-out: Visual Growth Reduction (%) 14 Days After Application, ORYSA.
Where [15] appears, read: SETFA: giant foxtail (Setaria faberi), read-out: Visual Growth Reduction (%) 14 Days After Application, SETFA.
Setting [16] is: SORVU: grain sorghum (Sorghum vulgare), read-out: Visual Growth Reduction (%) 14 Days After Application, SORVU.
Where [17] appears, read: ZEAMX: maize, corn (Zea mays), read-out: Visual Growth Reduction (%) 14 Days After Application, ZEAMX.
Where [18] appears, read: TRZSS (wheat, Triticum aestivum), read-out: Visual Growth Reduction (%) 14 Days After Application, TRZSS.

Usually melting point stands for the temperature, or range, at which the solid turns liquid. `Nc1c(Cl)c(C(=O)O)nc(-c2ccc(OC(F)F)cc2)c1Cl` [Compound 33] registered a melting point of 146.3 to 147.6 °C. The pest or weed control at 140 g/ha in data set [1] (setting [3]) is 60 to 74%. Besides, the pest or weed control at 140 g/ha in data set [1] (setting [4]) was 0 to 29%. In addition, in data set [1] (setting [5]), the pest or weed control at 140 g/ha was in the range of 30 to 44%. Besides, in data set [1] (setting [6]), the pest or weed control at 140 g/ha lay in the range of 0 to 29%. The pest or weed control at 140 g/ha in data set [1] (setting [7]) was 0 to 29%. Besides, the pest or weed control at 140 g/ha in data set [1] (setting [8]) was in the range of 95 to 100%. The pest or weed control at 140 g/ha in data set [1] (setting [9]) is 0 to 29%. Moreover, the pest or weed control at 140 g/ha in data set [2] (setting [10]) was 0 to 29%. In addition, the pest or weed control at 140 g/ha in data set [2] (setting [11]) is 0 to 29%. Besides, the pest or weed control at 140 g/ha in data set [2] (setting [12]) fell in the range of 0 to 29%. Also, in data set [2] (setting [13]), the pest or weed control at 140 g/ha was in the range of 0 to 29%. Also, the pest or weed control at 140 g/ha in data set [2] (setting [14]) fell in the range of 0 to 29%. For the same molecule, the pest or weed control at 140 g/ha in data set [2] (setting [15]) was 0 to 29%. Also, in data set [2] (setting [16]), the pest or weed control at 140 g/ha is 0 to 29%. In addition, the pest or weed control at 140 g/ha in data set [2] (setting [17]) fell in the range of 0 to 29%.
`C#Cc1ccc(-c2cc(N)c(Cl)c(C(=O)O)n2)cc1` [Compound 48] registered a melting point of 204.2 to 205.9 °C. Also, in data set [1] (setting [3]), the pest or weed control at 140 g/ha fell in the range of 95 to 100%. Also, the pest or weed control at 140 g/ha in data set [1] (setting [4]) fell in the range of 95 to 100%. Besides, the pest or weed control at 140 g/ha in data set [1] (setting [5]) lay in the range of 85 to 94%. For the same molecule, the pest or weed control at 140 g/ha in data set [1] (setting [6]) fell in the range of 85 to 94%. In addition, the pest or weed control at 140 g/ha in data set [1] (setting [7]) fell in the range of 95 to 100%. The pest or weed control at 140 g/ha in data set [1] (setting [8]) fell in the range of 95 to 100%. The pest or weed control at 140 g/ha in data set [1] (setting [9]) was in the range of 0 to 29%. Also, in data set [2] (setting [10]), the pest or weed control at 140 g/ha lay within 30 to 44%. In addition, the pest or weed control at 140 g/ha in data set [2] (setting [11]) was in the range of 0 to 29%. Also, in data set [2] (setting [12]), the pest or weed control at 140 g/ha was 60 to 74%. Besides, the pest or weed control at 140 g/ha in data set [2] (setting [13]) was 75 to 84%. Further, the pest or weed control at 140 g/ha in data set [2] (setting [14]) is 0 to 29%. In data set [2] (setting [15]), the pest or weed control at 140 g/ha was 0 to 29%. The pest or weed control at 140 g/ha in data set [2] (setting [16]) fell in the range of 0 to 29%. Also, the pest or weed control at 140 g/ha in data set [2] (setting [17]) lay within 0 to 29%.
On to `COC(=O)c1nc(-c2ccc(Br)cc2)c(C)c(N)c1Cl` [Compound 81, methyl 4-amino-6-(4-bromophenyl)-3-chloro-5-methylpicolinate], for which the melting point was 128 to 130 °C. In data set [1] (setting [3]), the pest or weed control at 140 g/ha was 95 to 100%. For the same molecule, the pest or weed control at 140 g/ha in data set [1] (setting [4]) lay within 95 to 100%. Further, in data set [1] (setting [5]), the pest or weed control at 140 g/ha was in the range of 60 to 74%. Also, in data set [1] (setting [6]), the pest or weed control at 140 g/ha is 95 to 100%. Moreover, the pest or weed control at 140 g/ha in data set [1] (setting [7]) fell in the range of 75 to 84%. Moreover, the pest or weed control at 140 g/ha in data set [1] (setting [8]) lay within 95 to 100%. For the same molecule, the pest or weed control at 140 g/ha in data set [1] (setting [9]) fell in the range of 0 to 29%. The pest or weed control at 140 g/ha in data set [2] (setting [10]) is 45 to 59%. For the same molecule, in data set [2] (setting [11]), the pest or weed control at 140 g/ha was 0 to 29%. Besides, the pest or weed control at 140 g/ha in data set [2] (setting [12]) fell in the range of 45 to 59%. The pest or weed control at 140 g/ha in data set [2] (setting [13]) is 0 to 29%. Moreover, the pest or weed control at 140 g/ha in data set [2] (setting [14]) lay in the range of 0 to 29%. Moreover, in data set [2] (setting [15]), the pest or weed control at 140 g/ha lay within 60 to 74%. The pest or weed control at 140 g/ha in data set [2] (setting [16]) lay within 75 to 84%. Further, the pest or weed control at 140 g/ha in data set [2] (setting [17]) lay in the range of 75 to 84%.
The molecule `Cc1c(-c2ccc(I)c(F)c2)nc(C(=O)O)c(Cl)c1N` [Compound 87, 4-Amino-3-chloro-6-(3-fluoro-4-iodophenyl)-5-methylpicolinic acid] showed a melting point of 171 to 172 °C. In data set [1] (setting [3]), the pest or weed control at 70 g/ha was in the range of 85 to 94% and the pest or weed control at 140 g/ha is 85 to 94%. In addition, in data set [1] (setting [5]), the pest or weed control at 70 g/ha is 95 to 100% and the pest or weed control at 140 g/ha lay within 95 to 100%. Also, in data set [1] (setting [6]), the pest or weed control at 70 g/ha is 85 to 94% and the pest or weed control at 140 g/ha lay in the range of 85 to 94%. Further, in data set [1] (setting [7]), the pest or weed control at 70 g/ha was in the range of 0 to 29% and the pest or weed control at 140 g/ha lay within 0 to 29%. Also, in data set [1] (setting [8]), the pest or weed control at 70 g/ha is 85 to 94% and the pest or weed control at 140 g/ha is 85 to 94%. Moreover, in data set [1] (setting [9]), the pest or weed control at 70 g/ha is 60 to 74% and the pest or weed control at 140 g/ha lay within 85 to 94%. In addition, in data set [2] (setting [11]), the pest or weed control at 70 g/ha is 0 to 29% and the pest or weed control at 140 g/ha lay in the range of 45 to 59%. In data set [2] (setting [12]), the pest or weed control at 70 g/ha fell in the range of 60 to 74% and the pest or weed control at 140 g/ha was in the range of 60 to 74%. In data set [2] (setting [13]), the pest or weed control at 70 g/ha fell in the range of 75 to 84% and the pest or weed control at 140 g/ha fell in the range of 75 to 84%. Further, in data set [2] (setting [14]), the pest or weed control at 70 g/ha fell in the range of 0 to 29% and the pest or weed control at 140 g/ha was in the range of 0 to 29%. In data set [2] (setting [15]), the pest or weed control at 70 g/ha fell in the range of 60 to 74% and the pest or weed control at 140 g/ha is 75 to 84%. For the same molecule, in data set [2] (setting [16]), the pest or weed control at 70 g/ha is 60 to 74% and the pest or weed control at 140 g/ha lay in the range of 60 to 74%. In addition, in data set [2] (setting [18]), the pest or weed control at 70 g/ha was in the range of 60 to 74% and the pest or weed control at 140 g/ha was in the range of 60 to 74%. Also, in data set [2] (setting [17]), the pest or weed control at 70 g/ha was 60 to 74% and the pest or weed control at 140 g/ha was in the range of 60 to 74%.

These data come from US9113629B2, “4-amino-6-(4-substituted-phenyl)-picolinates and 6-amino-2-(4-substituted-phenyl)-pyrimidine-4-carboxylates and their use as herbicides” (DOW AGROSCIENCES LLC, priority 2013, dated 2015).
